# Test results: patent US8785488B2 (Exelixis Patent Company LLC, priority 2009, dated 2014)
# Key:
# h-TGR5 = biological target: T1, h-TGR5 (Homo sapiens, UniProt Q8TDU6); test: TGR5 cAMP Assay using Cisbio cAMP Dynamic2 htrf kit (hTGR5CRE-luc HEK 293 cells); format: cell-based; conditions: h-TGR5 cAMP EC50, Table 1; read-out: cAMP (EC50)
# T1 construct: expressed in transfected cells
# T1 sequence (Q8TDU6 1-330): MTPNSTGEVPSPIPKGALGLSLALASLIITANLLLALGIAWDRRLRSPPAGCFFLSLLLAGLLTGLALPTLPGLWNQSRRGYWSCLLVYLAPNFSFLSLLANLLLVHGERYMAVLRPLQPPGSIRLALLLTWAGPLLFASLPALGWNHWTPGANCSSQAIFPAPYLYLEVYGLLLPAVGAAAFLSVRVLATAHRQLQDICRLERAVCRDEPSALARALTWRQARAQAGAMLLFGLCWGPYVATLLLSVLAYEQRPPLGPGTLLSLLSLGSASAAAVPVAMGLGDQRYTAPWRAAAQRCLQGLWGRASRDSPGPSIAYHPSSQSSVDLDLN
# Method in brief: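 […], 4000 hTGR5CRE-luc HEK 293 cells per well, with 0.5 mM IBMX and d2-cAMP, were incubated 30 min at room temperature with compounds in 8-point half-log series, in quadruplicate.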
# human TGR5 (h-TGR5) = biological target: T2, human TGR5 (h-TGR5) (Homo sapiens, UniProt Q8TDU6); test: TGR5/CRE-Luciferiase Assay (HEK 293 hTGR5/CRE-Luc cells); format: cell-based; conditions: h-TGR5 CRE-Luc EC50, Table 1; read-out: CRE-Luc (EC50)
# T2 construct: expressed in transfected cells
# T2 sequence (Q8TDU6 1-330): T1 sequence (Q8TDU6 1-330)
# Method in brief: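 HEK293 cells stably carrying hTGR5 and a CRE-luciferase reporter were exposed to serially diluted compounds (diluted in DMEM with 5% DMSO) for 6 h. Cells were then lysed in luciferase buffer, luminescence was read, and EC50 values were derived from dose-response curves.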
EC50 (h-TGR5) [nM],EC50 (human TGR5 (h-TGR5)) [nM],Structure (SMILES)
100 to 1000,100 to 1000,"COc1cc(-n2c(C(C)(C)c3ccc(F)c(F)c3)cnc2SCc2ccc(S(=O)(=O)NC(=O)NN3CCCC3)cc2Cl)ccc1F [3-chloro-4-[({5-[1-(3,4-difluorophenyl)-1-methylethyl]-1-[4-fluoro-3-(methyloxy)phenyl]-1H-imidazol-2-yl}thio)methyl]-N-[(pyrrolidin-1-ylamino)carbonyl]benzenesulfonamide]"
100 to 1000,100 to 1000,CC(C)(c1ccc(F)c(Cl)c1)c1cnc(SCc2ccc(S(=O)(=O)NC(=O)NN3CCCC3)cc2Cl)n1-c1ccc(F)cc1 [3-chloro-4-[({5-[1-(3-chloro-4-fluorophenyl)-1-methylethyl]-1-(4-fluorophenyl)-1H-imidazol-2-yl}thio)methyl]-N-[(pyrrolidin-1-ylamino)carbonyl]benzenesulfonamide]
100 to 1000,100 to 1000,CC(C)NC(=O)NS(=O)(=O)c1ccc(CSc2ncc(C(C)(C)c3ccc(F)c(C#N)c3)n2-c2ccc(F)cc2)c(Cl)c1 [3-chloro-4-[({5-[1-(3-cyano-4-fluorophenyl)-1-methylethyl]-1-(4-fluorophenyl)-1H-imidazol-2-yl}thio)methyl]-N-{[(1-methylethyl)amino]carbonyl}benzenesulfonamide]
1000 to 10000,100 to 1000,COc1cc(-n2c(C(C)(C)c3ccc(S(C)(=O)=O)cc3)cnc2SCc2ccc(S(=O)(=O)NC(=O)NN3CCCC3)cc2Cl)ccc1F [3-chloro-4-{[(1-[4-fluoro-3-(methyloxy)phenyl]-5-{1-methyl-1-[4-(methylsulfonyl)phenyl]ethyl}-1H-imidazol-2-yl)thio]methyl}-N-[(pyrrolidin-1-ylamino)carbonyl]benzenesulfonamide]
100 to 1000,100 to 1000,"CC(C)(c1ccc(Cl)c(Cl)c1)c1cnc(SCc2c(F)cc(C(=O)O)cc2Cl)n1-c1ccc(F)c(OCCCO)c1 [3-chloro-4-{[(5-[1-(3,4-dichlorophenyl)-1-methylethyl]-1-{4-fluoro-3-[(3-hydroxypropyl)oxy]phenyl}-1H-imidazol-2-yl)thio]methyl}-5-fluorobenzoic acid]"

# The remaining lines, values behind:
Structure (SMILES),EC50 (h-TGR5) [nM],EC50 (human TGR5 (h-TGR5)) [nM]
CC(C)(c1ccc(F)c(C#N)c1)c1cnc(SCc2ccc(S(=O)(=O)NC(=O)NN3CCCC3)cc2Cl)n1-c1ccc(F)cc1 [3-chloro-4-[({5-[1-(3-cyano-4-fluorophenyl)-1-methylethyl]-1-(4-fluorophenyl)-1H-imidazol-2-yl}thio)methyl]-N-[(pyrrolidin-1-ylamino)carbonyl]benzenesulfonamide],100 to 1000,100 to 1000
COc1cc(-n2c(C(C)(C)c3ccc(F)c(C#N)c3)cnc2SCc2ccc(S(=O)(=O)NC(=O)NN3CCCC3)cc2Cl)ccc1F [3-chloro-4-[({5-[1-(3-cyano-4-fluorophenyl)-1-methylethyl]-1-[4-fluoro-3-(methyloxy)phenyl]-1H-imidazol-2-yl}thio)methyl]-N-[(pyrrolidin-1-ylamino)carbonyl]benzenesulfonamide],100 to 1000,100 to 1000
COc1cc(-n2c(C(C)(C)c3ccc(F)c(C#N)c3)cnc2SCc2ccc(S(=O)(=O)NC(=O)NC(C)C)cc2Cl)ccc1F [3-chloro-4-[({5-[1-(3-cyano-4-fluorophenyl)-1-methylethyl]-1-[4-fluoro-3-(methyloxy)phenyl]-1H-imidazol-2-yl}thio)methyl]-N-{[(1-methylethyl)amino]carbonyl}benzenesulfonamide],< 100,< 100
"Cc1cc(-n2c(C(C)(C)c3ccc(Cl)c(Cl)c3)cnc2SCc2ccc(S(=O)(=O)NC(=O)NN3CCCC3)cc2Cl)ccc1F [3-chloro-4-[({5-[l-(3,4-dichlorophenyl)-1-methylethyl]-1-(4-fluoro-3-methylphenyl)-1H-imidazol-2-yl}thio)methyl]-N-[(pyrrolidin-1-ylamino)carbonyl]benzenesulfonamide]",100 to 1000,100 to 1000
